According to the supplement of paper PMC7840683:

Test system: HepaRG
Assay: LDH release cytotoxicity, % of total lysis control; higher = more cytotoxic
Details: 48 h
Method in brief: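 Single-lot HepaRG cells in collagen I-coated 96-well plates were treated for 48 h in serum-free induction medium containing 0.5% DMSO with test chemicals in eight-point half-log series up to 100 µM. For total lysis, wells received 0.1% Triton X. LDH in 50 µL spent medium was assayed by resorufin fluorescence with CytoTox-ONE. Percent cytotoxicity was normalized to the on-plate vehicle and total lysis controls, with duplicates averaged.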

COC(=O)c1ccc(C(=O)OC)cc1 [Dimethyl terephthalate]
Details	LDH release cytotoxicity [%]
0.03162 µM	0.0234
0.1 µM	-0.391
0.3162278 µM	-1.12
1 µM	-0.654
3.16228 µM	-0.533
10 µM	0.0948
31.6228 µM	0.365
100 µM	2.87

CC(C)(O)c1ccc(CNC(=O)c2cccnc2Oc2ccc(F)cc2)cc1
Details	LDH release cytotoxicity [%]
0.03162 µM	-1.22
0.1 µM	-1.42
0.3162278 µM	-0.81
1 µM	-1.975
3.16228 µM	-0.936
10 µM	-0.88
31.6228 µM	-1.34
100 µM	-1.94

COc1cc(Cl)c(OC)cc1Cl [Chloroneb]
Details	LDH release cytotoxicity [%]
0.03162 µM	-1.52
0.1 µM	-0.787
0.3162278 µM	-1.49
1 µM	-2.31
3.16228 µM	-1.57
10 µM	-0.979
31.6228 µM	-0.777
100 µM	0.671

COC=C(C(=O)OC)c1ccccc1Oc1cc(Oc2ccccc2C#N)ncn1 [Azoxystrobin]
Details	LDH release cytotoxicity [%]
0.03162 µM	-1.32
0.1 µM	-1.84
0.3162278 µM	-2.03
1 µM	-2.35
3.16228 µM	-2.2
10 µM	-1.39
31.6228 µM	-1.83
100 µM	18.63

CC(C)(c1ccccc1)c1ccc(O)c(C(C)(C)c2ccccc2)c1 [2,4-Bis(1-methyl-1-phenylethyl)phenol]
Details	LDH release cytotoxicity [%]
0.03162 µM	-0.358
0.1 µM	-1.13
0.3162278 µM	-0.577
1 µM	-1.2
3.16228 µM	-1.41
10 µM	-0.479
31.6228 µM	-0.0613
100 µM	0.487

Clc1cc(Cl)c2c(c1)N=C1CCCCCN1C2
Details	LDH release cytotoxicity [%]
0.03162 µM	-2.23
0.1 µM	-1.38
0.3162278 µM	-0.748
1 µM	-1.45
3.16228 µM	-1.34
10 µM	1.41
31.6228 µM	1.58
100 µM	3.36

COC(=O)NC(=S)Nc1ccccc1NC(=S)NC(=O)OC [Thiophanate-methyl]
Details	LDH release cytotoxicity [%]
0.03162 µM	-1.04
0.1 µM	-0.552
0.3162278 µM	-0.928
1 µM	-1.83
3.16228 µM	-0.882
10 µM	0.238
31.6228 µM	0.796
100 µM	8.47

CCCCCOC(=O)c1ccccc1C(=O)OCCCCC [Dipentyl phthalate]
Details	LDH release cytotoxicity [%]
0.03162 µM	-0.338
0.1 µM	-1.03
0.3162278 µM	-1.76
1 µM	-0.0572
3.16228 µM	10.4
10 µM	55.1
31.6228 µM	47.6
100 µM	43.3

Oc1c(Cl)c(Cl)c(Cl)c(Cl)c1Cl [Pentachlorophenol]
Details	LDH release cytotoxicity [%]
0.0161276 µM	-0.227
0.051 µM	-1.03
0.161276 µM	-1.01
0.51 µM	-0.425
1.6127616 µM	1.21
5.1 µM	9
16.127616 µM	41.1
51 µM	40.65

CCCCC(CC)COC(=O)CC(C(=O)OCC(CC)CCCC)S(=O)(=O)O (stereo not given) [Docusate sodium]
Details	LDH release cytotoxicity [%]
0.03162 µM	-1.66
0.1 µM	-0.373
0.3162278 µM	-0.361
1 µM	-0.887
3.16228 µM	-0.195
10 µM	-1.39
31.6228 µM	1.52
100 µM	75.5

CC(=O)CC(C)(C)O [Diacetone alcohol]
Details	LDH release cytotoxicity [%]
0.016602 µM	-0.631
0.0525 µM	0.0827
0.16602 µM	-0.266
0.525 µM	0.0034
1.660196 µM	-0.934
5.25 µM	-1.02
16.602 µM	-0.505
52.5 µM	-2.05

Nc1ccc(Cl)cc1 [4-Chloroaniline]
Details	LDH release cytotoxicity [%]
0.03162 µM	-1.56
0.1 µM	-0.947
0.3162278 µM	-2.25
1 µM	-1.34
3.16228 µM	-0.444
10 µM	-1.71
31.6228 µM	-1.53
100 µM	0.243

CC#Cc1cc(C)nc(Nc2ccccc2)n1 [Mepanipyrim]
Details	LDH release cytotoxicity [%]
0.03162 µM	-1.35
0.1 µM	-1.3
0.3162278 µM	-1.45
1 µM	-1.69
3.16228 µM	-0.377
10 µM	0.835
31.6228 µM	2.41
100 µM	11.4

CC1CC2C3CCC4=CC(=O)C=CC4(C)C3(F)C(O)CC2(C)C1(O)C(=O)COP(=O)(O)O (stereo not given) [Dexamethasone sodium phosphate]
Details	LDH release cytotoxicity [%]
0.03162 µM	-1.41
0.1 µM	-1.19
0.3162278 µM	-0.881
1 µM	-1.653
3.16228 µM	-1.03
10 µM	-1.06
31.6228 µM	-0.535
100 µM	-0.295

CCN(CC)c1ccccc1 [N,N-Diethylaniline]
Details	LDH release cytotoxicity [%]
0.03162 µM	-1.55
0.1 µM	-1.44
0.3162278 µM	-1.37
1 µM	-1.59
3.16228 µM	-0.839
10 µM	-1.07
31.6228 µM	-0.362
100 µM	0.493
